According to ChEMBL document CHEMBL5625222, “Design, synthesis, and biological evaluation of 1,6-naphthyridine-2-one derivatives as novel FGFR4 inhibitors for the treatment of colorectal cancer” (Eur J Med Chem, 2023):
Activity calls are given as the source filed them. No cut-off for these calls is given here.

Tests used:
[1] = target: Fibroblast growth factor receptor 1 (Homo sapiens, UniProt P11362); assay: Inhibition of FGFR1 (unknown origin) kinase activity
[2] = tested on: SW480; assay: Antiproliferative activity against human SW480 cells assessed as inhibition of colony formation incubated for 2 weeks by crystal violet staining method; format: functional, cell-based
[3] = tested on: RKO; assay: Induction of cell cycle arrest in human RKO cells assessed as accumulation of cells at G2/M phase incubated for 48 hrs by propidium iodide staining based flow cytometry; format: functional
[4] = tested on: HCT-116; assay: Induction of cell cycle arrest in human HCT-116 cells assessed as downregulation of cyclin B1 expression at 1.5 to 6 uM by immunoblotting analysis; format: functional, cell-based; conditions: dose 1.5-6 µM
[5] = tested on: SW480; assay: Induction of cell cycle arrest in human SW480 cells assessed as downregulation of cyclin B1 expression at 1.5 to 6 uM by immunoblotting analysis; format: functional, cell-based; conditions: dose 1.5-6 µM
[6] = tested on: RKO; assay: Induction of cell cycle arrest in human RKO cells assessed as downregulation of CDC2 expression at 1.5 to 6 uM by immunoblotting analysis; format: functional, cell-based; conditions: dose 1.5-6 µM
[7] = tested on: HCT-116; assay: Anti-migration activity in human HCT-116 cells assessed as loss of actin cytoskeletal fibers at 3 to 12 uM by immunofluorescence assay; format: functional, cell-based; conditions: dose 3-12 µM
[8] = tested on: HCT-116; assay: Anti-migration activity in human HCT-116 cells assessed as upregulation of E-cad expression by Western blotting analysis; format: functional, cell-based
[9] = tested on: HCT-116; assay: Anti-migration activity in human HCT-116 cells assessed as downregulation of FAK phosphorylation by Western blotting analysis; format: functional, cell-based
[10] = tested on: SW480; assay: Anti-migration activity in human SW480 cells assessed as loss of actin cytoskeletal fibers at 3 to 12 uM by immunofluorescence assay; format: functional, cell-based; conditions: dose 3-12 µM
[11] = tested on: SW480; assay: Anti-migration activity in human SW480 cells assessed as change in FAK distribution at 3 to 12 uM by immunofluorescence assay; format: functional, cell-based; conditions: dose 3-12 µM
[12] = tested on: SW480; assay: Anti-migration activity in human SW480 cells assessed as upregulation of E-cad expression by Western blotting analysis; format: functional, cell-based
[13] = tested on: SW480; assay: Anti-migration activity in human SW480 cells assessed as downregulation of FAK phosphorylation by Western blotting analysis; format: functional, cell-based
[14] = tested on: RKO; assay: Anti-migration activity in human RKO cells assessed as downregulation of FAK phosphorylation by Western blotting analysis; format: functional, cell-based
[15] = Hepatotoxicity in ICR mouse assessed as change in serum creatinine level at 20 mg/kg,po administrated for 1 week; format: toxicity, organism-based; conditions: in vivo, 168 h, time 1 weeks
[16] = Hepatotoxicity in ICR mouse assessed as change in serum ALT level at 60 mg/kg,po administrated for 1 week; format: toxicity, organism-based; conditions: in vivo, 168 h, time 1 weeks
[17] = Toxicity in BALB/c mouse xenografted with human HCT-116 cells assessed as change in heart weight at 10 mg/kg,ip administrated for 2 weeks; format: organism-based; conditions: in vivo, 336 h
[18] = Toxicity in BALB/c mouse xenografted with human HCT-116 cells assessed as change in lung weight at 10 mg/kg,ip administrated for 2 weeks; format: organism-based; conditions: in vivo, 336 h
[19] = Toxicity in BALB/c mouse xenografted with human HCT-116 cells assessed as change in kidney weight at 10 mg/kg,ip administrated for 2 weeks; format: organism-based; conditions: in vivo, 336 h
[20] = tested on: HCT-116; assay: Antitumor activity against human HCT-116 cells xenografted in BALB/c mouse assessed as change in cell morphology at 10 mg/kg,ip administrated for 2 weeks by hematoxylin and eosin staining based analysis; format: functional, organism-based
[21] = tested on: HCT-116; assay: Antitumor activity against human HCT-116 cells xenografted in BALB/c mouse assessed as change in cell morphology at 20 mg/kg,ip administrated for 2 weeks by hematoxylin and eosin staining based analysis; format: functional, organism-based
[22] = tested on: HCT-116; assay: Antitumor activity against human HCT-116 cells xenografted in BALB/c mouse assessed as chromatin condensation at 20 mg/kg,ip administrated for 2 weeks by hematoxylin and eosin staining based analysis; format: functional, organism-based
[23] = Toxicity in BALB/c mouse xenografted with human HCT-116 cells assessed as histopathological change in kidney at 10 mg/kg,ip administrated for 2 weeks by hematoxylin and eosin staining based analysis; format: organism-based; conditions: in vivo, 336 h
[24] = Toxicity in BALB/c mouse xenografted with human HCT-116 cells assessed as change in serum ALT level at 10 mg/kg,ip administrated for 2 weeks; format: organism-based; conditions: in vivo, 336 h
[25] = Toxicity in BALB/c mouse xenografted with human HCT-116 cells assessed as change in serum ALT level at 20 mg/kg,ip administrated for 2 weeks; format: organism-based; conditions: in vivo, 336 h
[26] = tested on: HCT-116; assay: Antitumor activity against human HCT-116 cells xenografted in BALB/c mouse assessed as downregulation of FAK phosphorylation in tumor at 10 mg/kg,ip administrated for 2 weeks by Western blotting analysis; format: functional, organism-based
[27] = tested on: HCT-116; assay: Antitumor activity against human HCT-116 cells xenografted in BALB/c mouse assessed as decrease in Ki67 expression in tumor tissue at ip administrated for 2 weeks by immunohistochemical analysis; format: functional, organism-based

Chain of Fibroblast growth factor receptor 1 (P11362 whole entry): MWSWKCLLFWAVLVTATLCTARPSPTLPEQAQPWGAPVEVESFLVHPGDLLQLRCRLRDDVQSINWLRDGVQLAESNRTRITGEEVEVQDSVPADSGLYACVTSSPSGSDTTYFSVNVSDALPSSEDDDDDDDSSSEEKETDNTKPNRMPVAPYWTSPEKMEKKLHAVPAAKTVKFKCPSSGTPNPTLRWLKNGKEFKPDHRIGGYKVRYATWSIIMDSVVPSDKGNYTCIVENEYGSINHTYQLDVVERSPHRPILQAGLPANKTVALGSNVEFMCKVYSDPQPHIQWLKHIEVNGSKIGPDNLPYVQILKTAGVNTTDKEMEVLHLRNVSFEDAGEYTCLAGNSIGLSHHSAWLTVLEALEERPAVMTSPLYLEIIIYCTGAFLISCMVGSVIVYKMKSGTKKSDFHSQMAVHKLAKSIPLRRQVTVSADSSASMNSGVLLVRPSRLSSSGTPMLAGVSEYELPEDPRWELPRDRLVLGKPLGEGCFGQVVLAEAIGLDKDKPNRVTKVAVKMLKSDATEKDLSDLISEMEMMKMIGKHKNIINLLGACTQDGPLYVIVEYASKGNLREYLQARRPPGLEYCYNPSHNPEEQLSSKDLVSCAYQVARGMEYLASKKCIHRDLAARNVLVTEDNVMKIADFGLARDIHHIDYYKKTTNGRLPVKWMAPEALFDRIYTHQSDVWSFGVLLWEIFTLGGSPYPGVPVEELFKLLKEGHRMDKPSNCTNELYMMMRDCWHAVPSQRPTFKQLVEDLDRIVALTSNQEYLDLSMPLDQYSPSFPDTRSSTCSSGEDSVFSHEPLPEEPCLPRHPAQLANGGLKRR

C=CC(=O)NCCCn1c(=O)c(-c2c(Cl)c(OC)cc(OC)c2Cl)cc2cnc(Nc3c(C)cccc3NC(=O)C=C)cc21
IC50 [1]: 643 nM | Activity [2]: Dose-Dependent Effect | Activity [3]: Dose-Dependent Effect | Activity [4]: Active | Activity [5]: Active | Activity [6]: Active | Activity [7]: Active | Activity [8]: Dose-Dependent Effect | Activity [9]: Dose-Dependent Effect | Activity [10]: Active | Activity [11]: Active | Activity [12]: Dose-Dependent Effect | Activity [13]: Dose-Dependent Effect | Activity [14]: Dose-Dependent Effect | Activity [15]: Non-Toxic | Activity [16]: Non-Toxic | Activity [17]: Non-Toxic | Activity [18]: Non-Toxic | Activity [19]: Non-Toxic | Activity [20]: Active | Activity [21]: Active | Activity [22]: Active | Activity [23]: Non-Toxic | Activity [24]: Non-Toxic | Activity [25]: Non-Toxic | Activity [26]: Active | Activity [27]: Dose-Dependent Effect
